# According to publication PMC7465886, “4-(N-Alkyl- and -Acyl-amino)-1,2,4-triazole-3-thione Analogs as Metallo-β-Lactamase Inhibitors: Impact of 4-Linker on Potency and Spectrum of Inhibition” (Biomolecules, 2020):
# Read-outs that look alike come from different tables or passages of the source.
# Experiments:
# [1] = target: T1, VIM-2 (Escherichia coli, UniProt Q5U7L7); experiment: MBL inhibition, reporter substrate method, VIM-2; assay type: biochemical
# T1 construct: made in house; host or cells: E. coli BL21(DE3) derivative, pET-9a
# Description: (§1) Compounds were prepared in DMSO at a final concentration of 50 mM prior to dilution in the assay buffer. The reaction rate was measured as the variation of absorbance observed upon substrate hydrolysis in a UV-Vis spectrophotometer or microplate reader at a wavelength of 300 nm (imipenem, meropenem), 260 nm (cefotaxime), or 482 nm (nitrocefin) and in the presence of a purified MBL enzyme (such as VIM-1, VIM-2, VIM-4, NDM-1, and IMP-1, at a final concentration ranging from 1 to 70 nM).
# (§2) These enzymes were overproduced in derivatives of E. coli BL21(DE3) carrying a pET-9 a (IMP-1, VIM-1, VIM-2, and VIM-4) or pET-15 b (NDM-1) vector into which the metallo-β-lactamase-encoding open reading frame was cloned. Bacterial strains were grown in the auto-inducing medium, ZYP-5052, supplemented with 50 μg/mL kanamycin for 24 h at 37 °C [38]. IMP-1, VIM-1, VIM-2, and VIM-4 were purified by ion-exchange and gel filtration chromatography using an AKTA Purifier platform (GE Healthcare, Uppsala, Sweden) as previously described. NDM-1 (residues 37-270) was produced as an amino-terminal 6 xHis-tag fusion protein and was purified using affinity chromatography. After growth for 26 h at 25 °C, bacterial cells were harvested by centrifugation (10,000× g, 30 min, 4 °C), resuspended in 10 mM HEPES buffer (pH 7.5) containing 0.15 M NaCl (buffer A) in one-fifth of the original culture volume, and lysed by sonication. Cellular debris was removed by centrifugation (12,000× g, 40 min, 4 °C). The clarified sample was loaded on a HisTrap HP column (bed volume, 5 mL; GE Healthcare), followed by a wash step (25 mL) with buffer A containing 20 mM imidazole. Proteins were eluted using buffer A containing 350 mM imidazole. The resulting protein sample was desalted (HiPrep 26/10 Desalting column, GE Healthcare) using 20 mM triethanolamine (pH 7.2) supplemented with 50 μM ZnSO4 and concentrated using an Amicon Ultra-15 (MW cut-off, 10 kDa; Millipore, Burlington, MA, USA). The concentrated sample was loaded on a Superdex 75 prep grade column (XK16/100 column; bed volume, 140 mL; GE Healthcare) and the proteins eluted with buffer A containing 50 μM ZnSO4. The active fractions were pooled and stored at −20 °C. The purity of the protein preparations was estimated >95% by SDS-PAGE analysis. The authenticity of the enzyme preparations was confirmed by electron spray ionization mass spectrometry, as previously described.
# (§3) The inhibition constants (Ki) were determined on the basis of a model of competitive inhibition by analyzing the dependence of the ratio v0/vi (v0, hydrolysis velocity in the absence of inhibitor; vi, hydrolysis velocity in the presence of inhibitor) as a function of [I] as already described. The slope of the plot of v0/vi vs. [I], which corresponds to Km^S/(Km^S + [S])Ki (where Km^S is the Km value of the reporter substrate and [S] its concentration in the reaction mixture) and allowed the calculation of the Ki value. Alternatively, a Dixon plot analysis was carried out by measuring the initial hydrolysis rates in the presence of variable concentrations of inhibitor and substrate. This allowed Ki values to be determined and supported the hypothesis that the various compounds behaved as competitive inhibitors of the various tested enzymes. The assays were performed in triplicate.
# [2] = target: T2, IMP-1 (Serratia marcescens, UniProt P52699); experiment: MBL inhibition, reporter substrate method, IMP-1; assay type: biochemical
# T2 construct: made in house; host or cells: E. coli BL21(DE3) derivative, pET-9a
# T2 sequence (P52699 19-246 limits assumed): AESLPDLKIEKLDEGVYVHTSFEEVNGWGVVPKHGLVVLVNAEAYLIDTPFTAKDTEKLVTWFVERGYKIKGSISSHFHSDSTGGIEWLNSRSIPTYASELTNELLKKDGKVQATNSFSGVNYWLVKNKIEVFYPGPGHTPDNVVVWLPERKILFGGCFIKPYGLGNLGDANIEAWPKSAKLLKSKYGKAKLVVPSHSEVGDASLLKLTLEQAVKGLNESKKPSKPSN
# Description: as §1, §2, §3
# [3] = target: NDM-1 (Klebsiella pneumoniae, UniProt C7C422); experiment: MBL inhibition, reporter substrate method, NDM-1; assay type: biochemical
# NDM-1, sequence (C7C422 37-270 limits assumed): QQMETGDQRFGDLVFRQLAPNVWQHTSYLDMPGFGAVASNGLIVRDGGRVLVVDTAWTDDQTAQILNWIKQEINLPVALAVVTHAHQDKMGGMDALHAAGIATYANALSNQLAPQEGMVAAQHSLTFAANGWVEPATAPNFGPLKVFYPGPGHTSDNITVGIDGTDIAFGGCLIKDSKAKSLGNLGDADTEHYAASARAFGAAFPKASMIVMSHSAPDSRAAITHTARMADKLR
# Description: as §1, §2, §3
# [4] = target: T3, VIM-1 (Pseudomonas aeruginosa, UniProt A0A0F7KYQ8); experiment: MBL inhibition, reporter substrate method, VIM-1; assay type: biochemical; conditions: read-out: Inhibition of VIM-1 (dash)
# T3 construct: made in house; host or cells: E. coli BL21(DE3) derivative, pET-9a
# Description: as §1, §2, §3
# [5] = target: T4, VIM-4 (Pseudomonas aeruginosa, UniProt A0A0F7KYQ8, S205R); experiment: MBL inhibition, reporter substrate method, VIM-4; assay type: biochemical; conditions: read-out: Percentage of Inhibition at 100 μM Inhibitor, VIM-4
# T4 construct: made in house; host or cells: E. coli BL21(DE3) derivative, pET-9a
# Description: as §1, §2, §3
# [6] = system: E. coli LZ2310(pLBII-VIM-2); experiment: microbe, parasite or virus in culture; assay type: cell-based, Escherichia coli; conditions: 220 μg added to 30 μg cefoxitin disk (positive control)
# Description: The potential activity of selected compounds was assessed by the agar disk-diffusion method, according to the CLSI (Clinical Laboratory Standard Institute) recommendations, using Mueller–Hinton medium. The inhibitor (dissolved in DMSO) was added (maximum volume of 15 μL) to a commercially available disk containing a defined amount of a β-lactam antibiotic (30 μg of cefoxitin (Oxoid, Milan, Italy)). After incubation (18 h at 35 °C), the diameter of the growth inhibition zone was measured and compared to that obtained in the absence of inhibitor. DMSO and EDTA (220 μg) were used as negative and positive controls, respectively. Experiments were performed in triplicate.
# These tests were performed on an isogenic laboratory strain obtained after transforming Escherichia coli LZ2310 strain with a derivative of the high copy number plasmid pLB-II carrying the cloned blaVIM-2 gene harboring a cloned gene encoding the functional metallo-β-lactamase. Strain LZ2310 is a triple knockout mutant derived from K12 in which the genes encoding for components of the three major efflux pump systems were inactivated (genotype, ∆norE ∆mdfA N43 acrA1) and was used to generate an hyperpermeable background for MBL production and investigate the potential contribution of such mechanisms to inhibitor efflux.
# [7] = read-out: Inhibition of VIM-2 (dash in Ki column)
# [8] = read-out: Inhibition of IMP-1 (dash in Ki column)
# [9] = read-out: Inhibition of NDM-1 (dash in Ki column)
# [10] = read-out: Percentage of Inhibition at 100 μM Inhibitor, VIM-2 (dash)
# [11] = read-out: Percentage of Inhibition at 100 μM Inhibitor, IMP-1 (dash)
# [12] = read-out: Percentage of Inhibition at 100 μM Inhibitor, NDM-1 (dash)
compound,measurement,setting,value
O=C(O)c1ccccc1CNn1c(-c2cc3ccccc3[nH]2)n[nH]c1=S [Compound 5],inhibition at 100 µM,[1]; [7],< 40%
same,inhibition at 100 µM,[2]; [8],< 40%
same,inhibition at 100 µM,[3]; [9],< 40%
O=C(O)c1ccccc1CNn1c(CCc2ccccc2)n[nH]c1=S [Compound 8],inhibition at 100 µM,[1]; [7],< 40%
same,inhibition at 100 µM,[2]; [8],< 40%
same,inhibition at 100 µM,[3]; [9],< 40%
O=[N+]([O-])c1ccccc1CNn1c(CCc2ccccc2)n[nH]c1=S [Compound 9],inhibition at 100 µM,[1]; [7],< 40%
same,inhibition at 100 µM,[2]; [8],< 40%
same,inhibition at 100 µM,[3]; [9],< 40%
O=C(O)c1ccc(CNn2c(CCc3ccccc3)n[nH]c2=S)cc1 [Compound 10],inhibition at 100 µM,[1]; [7],< 40%
same,inhibition at 100 µM,[2]; [8],< 40%
same,inhibition at 100 µM,[3]; [9],< 40%
O=C(O)c1ccccc1CNn1c(CC(c2ccccc2)c2ccccc2)n[nH]c1=S [Compound 11],inhibition at 100 µM,[1]; [7],< 40%
same,inhibition at 100 µM,[2]; [8],< 40%
same,Inhibition of NDM-1 (in words),[3],moderately inhibited
same,Ki,"[3]; hydrazine series, read-out: Ki Value NDM-1",16.4 ± 2.6 µM
O=C(O)c1ccccc1CNn1c(COc2ccc3ccccc3c2)n[nH]c1=S [Compound 12],inhibition at 100 µM,[1]; [7],< 40%
same,inhibition at 100 µM,[2]; [8],< 40%
same,inhibition at 100 µM,[3]; [9],< 40%
O=C(O)c1ccccc1C(=O)Nn1c(-c2ccccc2)n[nH]c1=S [Compound 17],Ki,"[1]; hydrazine and hydrazide series, read-out: Ki Value VIM-2",> 100 µM
same,inhibition at 100 µM,[1]; [10],< 20%
same,inhibition at 100 µM,[2]; [11],< 20%
same,inhibition at 100 µM,[3]; [12],< 20%
O=C(O)c1ccccc1C(=O)Nn1c(Cc2ccccc2)n[nH]c1=S [Compound 18],inhibition at 100 µM,[1]; [10],< 20%
same,inhibition at 100 µM,[2]; [11],< 20%
same,inhibition at 100 µM,[3]; [12],< 20%
O=C(O)c1ccccc1C(=O)Nn1c(-c2cccc(-c3ccccc3)c2)n[nH]c1=S [Compound 19],inhibition at 100 µM,"[1]; read-out: Percentage of Inhibition at 100 μM Inhibitor, VIM-2",36%
same,inhibition at 100 µM,[4],< 30%
same,inhibition at 100 µM,[5],41%
same,inhibition at 100 µM,"[2]; read-out: Percentage of Inhibition at 100 μM Inhibitor, IMP-1",40%
same,inhibition at 100 µM,"[3]; read-out: Percentage of Inhibition at 100 μM Inhibitor, NDM-1",42%
O=C(O)CCC(=O)Nn1c(-c2cccc(-c3ccccc3)c2)n[nH]c1=S [Compound 20],inhibition at 100 µM,[1]; [10],< 20%
same,inhibition at 100 µM,[2]; [11],< 20%
same,inhibition at 100 µM,[3]; [12],< 20%
"O=C(O)CN(CCN(CC(=O)O)CC(=O)O)CC(=O)O [EDTA, reference compound]",Inhibition Zone Diameter,[6],28 mm
